From ChEMBL document CHEMBL3994671, “Similarity- and Substructure-Based Development of β2-Adrenergic Receptor Ligands Based on Unusual Scaffolds” (ACS Med Chem Lett, 2017)
Activity calls are given as the source filed them. The calls are words filed in the database; no cut-off is given here.

How the values were obtained:
[1] = target: T1, Beta-2 adrenergic receptor (Homo sapiens, UniProt P07550); assay: Displacement of [3H](-)CGP12177 from human beta2-AR expressed in CHOK1 cells after 2 hrs by TopCount microscintillation counting method; type: cell-based
[2] = target: T2, Beta-1 adrenergic receptor (Homo sapiens, UniProt P08588); assay: Partial agonist activity at human beta1-AR expressed in CHOK1 cells assessed as CRE-SPAP production after 5 hrs in presence of beta1-AR antagonist CGP20712A; type: functional, cell-based
Target sequence in this assay (P08588 whole entry, looked up): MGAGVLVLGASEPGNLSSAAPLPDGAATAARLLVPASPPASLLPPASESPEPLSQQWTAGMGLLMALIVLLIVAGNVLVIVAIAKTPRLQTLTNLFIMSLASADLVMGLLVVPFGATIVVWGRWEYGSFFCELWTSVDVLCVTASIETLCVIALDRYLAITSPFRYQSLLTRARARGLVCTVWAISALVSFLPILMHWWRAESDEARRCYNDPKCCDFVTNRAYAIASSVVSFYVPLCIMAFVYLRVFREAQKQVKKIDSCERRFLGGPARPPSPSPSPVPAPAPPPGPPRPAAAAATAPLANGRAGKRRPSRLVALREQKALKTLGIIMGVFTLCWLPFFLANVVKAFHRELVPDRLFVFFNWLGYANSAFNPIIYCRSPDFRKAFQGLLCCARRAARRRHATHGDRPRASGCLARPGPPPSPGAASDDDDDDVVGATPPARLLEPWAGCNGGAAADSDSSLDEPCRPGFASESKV

[3] = target: T1, Beta-2 adrenergic receptor; assay: Partial agonist activity at human beta2-AR expressed in CHOK1 cells assessed as inhibition of cimaterol-induced CRE-SPAP production after 5 hrs; type: functional, cell-based
Target sequence in this assay (P07550 whole entry): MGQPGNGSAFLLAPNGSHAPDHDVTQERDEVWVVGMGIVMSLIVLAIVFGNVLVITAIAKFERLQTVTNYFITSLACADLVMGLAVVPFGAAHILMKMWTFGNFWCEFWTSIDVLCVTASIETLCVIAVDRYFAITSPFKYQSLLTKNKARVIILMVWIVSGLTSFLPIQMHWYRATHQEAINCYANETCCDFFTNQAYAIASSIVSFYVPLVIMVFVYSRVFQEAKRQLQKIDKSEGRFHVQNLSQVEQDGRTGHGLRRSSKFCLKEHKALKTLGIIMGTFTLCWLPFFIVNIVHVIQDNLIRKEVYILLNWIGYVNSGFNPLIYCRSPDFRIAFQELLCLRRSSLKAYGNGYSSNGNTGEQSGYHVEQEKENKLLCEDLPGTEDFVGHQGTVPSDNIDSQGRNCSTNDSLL

[4] = target: T2, Beta-1 adrenergic receptor; assay: Partial agonist activity at human beta1-AR expressed in CHOK1 cells assessed as inhibition of cimaterol-induced CRE-SPAP production after 5 hrs; type: functional, cell-based
Target sequence in this assay (P08588 whole entry, looked up): as the sequence (P08588 whole entry, looked up) above

[5] = organism: Homo sapiens; assay: Selectivity ratio of Kd for human beta1-AR expressed in CHOK1 cells to Kd for human beta2-AR expressed in CHOK1 cells; type: cell-based
[6] = target: T2, Beta-1 adrenergic receptor; assay: Partial agonist activity at human beta1-AR expressed in CHOK1 cells assessed as CRE-SPAP production after 5 hrs; type: functional, cell-based
Target sequence in this assay (P08588 whole entry, looked up): as above

[7] = target: T2, Beta-1 adrenergic receptor; assay: Displacement of [3H](-)CGP12177 from human beta1-AR expressed in CHOK1 cells after 2 hrs by TopCount microscintillation counting method; type: cell-based
Target sequence in this assay (P08588 whole entry): as the sequence (P08588 whole entry, looked up) above

[8] = target: T1, Beta-2 adrenergic receptor; assay: Displacement of [3H]DHA from beta2-AR (unknown origin) expressed in baculovirus infected sf9 cell membranes after 1 hr by scintillation counting method
Target sequence in this assay (P07550 whole entry): as the sequence (P07550 whole entry) above

[9] = target: T1, Beta-2 adrenergic receptor; assay: Antagonist activity at human beta2-AR expressed in CHOK1 cells assessed as inhibition of cimaterol-induced CRE-SPAP production at 100 uM after 5 hrs; type: functional, cell-based
Target sequence in this assay (P07550 whole entry, looked up): as the sequence (P07550 whole entry) above

[10] = target: T2, Beta-1 adrenergic receptor; assay: Antagonist activity at human beta1-AR expressed in CHOK1 cells assessed as inhibition of cimaterol-induced CRE-SPAP production at 100 uM after 5 hrs; type: functional, cell-based
Target sequence in this assay (P08588 whole entry, looked up): as the sequence (P08588 whole entry, looked up) above

[11] = target: T2, Beta-1 adrenergic receptor; assay: Neutral antagonist activity at human beta1-AR expressed in CHOK1 cells assessed as inhibition of cimaterol-induced CRE-SPAP production at 100 uM after 5 hrs; type: functional, cell-based
Target sequence in this assay (P08588 whole entry, looked up): as above

[12] = target: T1, Beta-2 adrenergic receptor; assay: Neutral antagonist activity at human beta2-AR expressed in CHOK1 cells assessed as inhibition of cimaterol-induced CRE-SPAP production at 100 uM after 5 hrs; type: functional, cell-based
Target sequence in this assay (P07550 whole entry, looked up): as the sequence (P07550 whole entry) above

[13] = target: T2, Beta-1 adrenergic receptor; assay: Displacement of [3H](-)CGP12177 from human beta1-AR expressed in CHOK1 cells at 20 to 100 uM after 2 hrs by TopCount microscintillation counting method relative to control; type: cell-based
Target sequence in this assay (P08588 whole entry, looked up): as the sequence (P08588 whole entry, looked up) above

[14] = target: T1, Beta-2 adrenergic receptor; assay: Antagonist activity at human beta2-AR expressed in CHOK1 cells assessed as inhibition of cimaterol-induced CRE-SPAP production at 20 uM after 5 hrs; type: functional, cell-based
Target sequence in this assay (P07550 whole entry, looked up): as the sequence (P07550 whole entry) above

[15] = target: T1, Beta-2 adrenergic receptor; assay: Antagonist activity at human beta2-AR expressed in CHOK1 cells assessed as inhibition of cimaterol-induced CRE-SPAP production at 2 uM after 5 hrs; type: functional, cell-based
Target sequence in this assay (P07550 whole entry, looked up): as the sequence (P07550 whole entry) above

[16] = target: T2, Beta-1 adrenergic receptor; assay: Antagonist activity at human beta1-AR expressed in CHOK1 cells assessed as inhibition of cimaterol-induced CRE-SPAP production at 20 uM after 5 hrs; type: functional, cell-based
[17] = target: T2, Beta-1 adrenergic receptor; assay: Antagonist activity at human beta1-AR expressed in CHOK1 cells assessed as inhibition of cimaterol-induced CRE-SPAP production at 2 uM after 5 hrs; type: functional, cell-based

C[n+]1c(C2=C(N)N(c3ccccc3)CC2=O)sc2ccccc21
inhibition [1]: inactive

CC(C)(C)NC[C@@H](O)COc1ccccc1-c1ccccc1
Activity [2]: inactive | Kd ([1]; read-out: pKd (converted)): 3.55e-05 µM | Kd [3]: 0.0182 nM | inhibition [4]: Active | Selectivity ratio [5]: 27.5 | Activity [6]: Active | Kd [7]: 0.000977 µM

CCN1C(=Cc2sc3ccccc3[n+]2C)C=Cc2cccc(C)c21
Ki [8]: 0.009 to 3.2 µM

Cc1cc(O)c(CN2CCCC2)c2c1C(=O)/C(=C/c1cc3ccccc3o1)O2
Selectivity ratio [5]: 2.6

CC(C)(C)NCC(O)COc1ccccc1-c1ccccc1 (centres undefined) [BERLAFENONE]
Kd ([1]; read-out: Kd): 3.5e-05 µM

C[n+]1c(/C=C/c2ccccc2Cl)sc2ccccc21
Kd ([1]; read-out: pKd (converted)): 4.9 µM | Selectivity ratio [5]: 2.8 | Kd [7]: 13.8 µM

Cc1n(-c2ccccc2)c2ccc(Cl)cc2[n+]1CCO
inhibition [9]: inactive | inhibition [1]: Active | inhibition [10]: inactive

CC(O)CNCCOc1ccccc1-c1ccccc1 (centres undefined)
Ki [8]: 0.009 to 3.2 µM

CN(C)CCOc1ccc2ccccc2c1C=O
Kd ([1]; read-out: pKd (converted)): 23.4 µM | Selectivity ratio [5]: 4.2

CN(C)CCOCCOc1ccccc1-c1ccccc1
Kd ([1]; read-out: pKd (converted)): 3.8 µM | inhibition [11]: Active | Selectivity ratio [5]: 12 | inhibition [12]: Active | Kd [7]: 45.7 µM

C[n+]1c(/C=C/Nc2ccccc2)sc2ccccc21
Kd ([1]; read-out: pKd (converted)): 38.9 µM | Selectivity ratio [5]: 6.6

CCCCN(C)Cc1c(O)cc(C)c2c1O/C(=C\c1cc3cc(Br)ccc3o1)C2=O
inhibition [13]: < 50%

COCCNCCOc1ccccc1-c1ccccc1
Ki [8]: 0.009 to 3.2 µM

Cc1cc(O)c(CN(C)C)c2c1C(=O)/C(=C/c1ccccc1)O2
Selectivity ratio [5]: 1.9

C=CCNCCOc1ccccc1-c1ccccc1
inhibition [9]: Active | Kd ([1]; read-out: pKd (converted)): 2.63 µM | Selectivity ratio [5]: 10.5 | Kd [7]: 27.5 µM | inhibition [10]: Active

COc1cccc(/C=C2\Oc3c(CN(C)C)c(O)cc(C)c3C2=O)c1
Kd ([1]; read-out: pKd (converted)): 21.9 µM | Selectivity ratio [5]: 2 | Kd [7]: 44.7 µM

COc1ccc(C(=O)C[n+]2c(C)n(C(F)F)c3ccccc32)cc1
inhibition [9]: inactive | inhibition [1]: Active | inhibition [10]: inactive

CCOC(=O)c1cc(/C=C/c2sc3ccccc3[n+]2C)c2sc3ccccc3n12
inhibition [14]: Active | inhibition [15]: Active | Kd ([1]; read-out: pKd (converted)): 0.891 µM | inhibition [16]: Active | inhibition [17]: inactive | Selectivity ratio [5]: 3.5 | Kd [7]: 3.09 µM

Cc1cc(O)c(CN2CCCC2)c2c1C(=O)/C(=C\c1ccco1)O2
Ki [8]: 0.009 to 3.2 µM

CCOC(=O)C1Oc2cccc(OCC(O)CNC(C)C)c2C1C (centres undefined)
Ki [8]: 0.009 to 3.2 µM

CCNCCOc1ccccc1-c1ccccc1
Ki [8]: 0.009 to 3.2 µM

COc1cccc(/C=C2\Oc3c(CN4CCN(C)CC4)c(O)cc(C)c3C2=O)c1
Kd ([1]; read-out: pKd (converted)): 17.4 µM | Selectivity ratio [5]: 1.5 | Kd [7]: 26.3 µM

COc1cccc(/C=C2\Oc3c(CN4CCCC4)c(O)cc(C)c3C2=O)c1
inhibition [9]: Active | Kd ([1]; read-out: pKd (converted)): 5.5 µM | Selectivity ratio [5]: 6.5 | Kd [7]: 35.5 µM | inhibition [10]: Active
